Results reported in article PMC11054271, “ABCG2 Transports the Flukicide Nitroxynil and Affects Its Biodistribution and Secretion into Milk” (Pharmaceutics, 2024).
Like-named read-outs stand apart in the source and are kept apart here.

Tests used:
[1] = target: T1, murine Abcg2 (Mus musculus, UniProt Q7TMS5); assay: Tissue distribution in wild-type and Abcg2−/− male mice; format: in vivo; set-up: from tissue; host or cells: whole animal: wild-type vs Abcg2-/- mice, >99% FVB/N background
T1 sequence (Q7TMS5 1-657): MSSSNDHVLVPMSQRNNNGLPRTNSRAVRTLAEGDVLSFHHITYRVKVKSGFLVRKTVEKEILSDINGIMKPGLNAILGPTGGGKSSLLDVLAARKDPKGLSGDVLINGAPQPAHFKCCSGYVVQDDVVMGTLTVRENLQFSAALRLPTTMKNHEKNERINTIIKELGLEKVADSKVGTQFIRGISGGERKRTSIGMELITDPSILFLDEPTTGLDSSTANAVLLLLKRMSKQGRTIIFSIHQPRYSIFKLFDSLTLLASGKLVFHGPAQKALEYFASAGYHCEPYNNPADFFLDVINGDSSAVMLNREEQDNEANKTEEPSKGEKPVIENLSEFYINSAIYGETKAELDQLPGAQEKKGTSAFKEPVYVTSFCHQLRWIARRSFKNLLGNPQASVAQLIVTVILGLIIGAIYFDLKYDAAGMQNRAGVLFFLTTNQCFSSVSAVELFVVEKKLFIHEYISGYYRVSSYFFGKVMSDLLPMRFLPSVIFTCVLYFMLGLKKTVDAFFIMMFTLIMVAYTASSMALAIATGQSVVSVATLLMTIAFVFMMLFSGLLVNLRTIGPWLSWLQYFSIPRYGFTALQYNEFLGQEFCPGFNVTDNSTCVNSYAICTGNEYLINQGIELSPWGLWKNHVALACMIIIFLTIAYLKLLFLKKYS
Procedure: (§1) All in vivo experiments were carried out using wild-type and Abcg2^−/− mice aged between 8 and 17 weeks, all of >99% FVB/N genetic background, generated and gently supplied by A. H. Schinkel (Netherlands Cancer Institute). Mice were housed and handled complying with institutional and ARRIVE guidelines and European legislation (EU Directive 2010/63/EU for animal experiments). Additionally, experimental procedures were approved by the Animal Care and Use Committee of the University of León and the Junta de Castilla y León (ULE_011_2019).
(§2) For pharmacokinetic experiments, a single dose of nitroxynil at 10 mg/kg was administered subcutaneously to wild-type and Abcg2^−/− male mice (n = 4–5, for each time point). Distomicide® (250 mg/mL) commercial solution was dissolved in saline (sodium chloride 0.9%) and dosed at 200 μL per 30 g body weight. Blood samples were collected at different time points (0.5, 3, 4.5, 6, 24, 48 and 96 h) and heparinized blood samples were centrifugated for 15 min at 3000× g. Organs were also collected at 24 and 96 h after euthanasia. Linear trapezoidal rule was used to calculate the area under the plasma concentration–time curve (AUC) parameter.
(§3) Plasma, milk and tissue samples from each animal were individually processed and analyzed without pooling, while samples from transport assays were not processed. Tissue samples were homogenized in a mixture of 50% water/50% methanol HCl 0.5% (v/v); 1 mL solution per 0.1 g tissue. The entire amount of collected milk (74.7–295.1 mg) and 100 μL plasma and tissue homogenates were processed. To each sample, 10 μL of a nitrofurantoin solution (10 μg/mL for plasma and milk and 2 μg/mL for homogenized tissues) was added as an internal standard and 150 μL acetonitrile was used to precipitate the proteins. The mixture was vortexed horizontally for 15 min and centrifugated at 10,000× g for 5 min at 4 °C. Supernatant was transferred to a new tube and dried at 40 °C under N2 stream. Samples were reconstituted in 100 μL of mobile phase and 50 μL was injected into HPLC. Standards were subjected to the same procedures as samples.
(§4) Waters 2695 separation module and Waters 2998 UV photodiode array detector set at 270 nm were used for samples analysis. Chromatographic conditions for nitroxynil detection were based on previously described methods, with minor modifications. Chromatographic separation was achieved on a reverse-phase column (Synergy 4 μm Hydro–RP 80 Å, 250 × 4.60 mm; Phenomenex®, Torrance, CA, USA) using an isocratic binary mobile phase consisting of 25 mM potassium phosphate monobasic (KH2PO4), pH 4: acetonitrile (70:30 for culture samples and 80:20 for animal samples) at a flow rate of 1 mL/min. Autosampler and column temperature were 4 °C and 40 °C, respectively. Limit of detection (LOD) and quantification (LOQ) were calculated as previously described. For cell culture samples, LOD and LOQ were 0.003 μg/mL and 0.007 μg/mL, respectively. For in vivo samples, LOD was in the range of 0.01–0.07 μg/mL and LOQ in the range of 0.03–0.15 μg/mL.

[2] = set-up: method as in PMID 7180778; conditions: cited from earlier work
[3] = system: murine Abcg2; assay: Milk secretion experiment in lactating wild-type and Abcg2−/− female mice; format: in vivo; conditions: FVB/N, mouse, intravenous, lactating Abcg2−/− female mice, 30 min after 10 mg/kg i.v.
Procedure: as §1
(§5) Pups of approximately 10 days old were separated from their mothers (wild-type (n = 10) and Abcg2^−/− (n = 11) female mice) 3 h before beginning the experiment. Milk secretion experiments were performed as previously described. Nitroxynil solution was prepared by diluting Distomicide® (250 mg/mL) commercial solution in saline and administered at a dose of 150 μL/30 g bw into the tail vein under anesthesia with isoflurane. An amount of 200 μL oxytocin (1 IU/mL) was administrated subcutaneously 10 min before milk collection. Blood and milk samples were collected from retro-orbital sinus and mammary gland, respectively, 30 min after nitroxynil administration.
as §3, §4

[4] = system: T2, murine Abcg2; assay: as above; format: in vivo; conditions: FVB/N, mouse, intravenous, lactating wild-type female mice, 30 min after 10 mg/kg i.v.
T2 construct: from tissue; host or cells: whole animal: wild-type vs Abcg2-/- mice, >99% FVB/N background
Procedure: as §1, §5, §3, §4

[5] = set-up: method as in PMID 21657788; conditions: cited from earlier work
[6] = system: murine Abcg2; assay: Tissue distribution in wild-type and Abcg2−/− male mice; format: in vivo; conditions: 10 mg/kg s.c.
Procedure: as §1, §2, §3, §4

[7] = wild-type male mice, 96 h, 10 mg/kg s.c.
[8] = milk and plasma, read-out: Milk-to-plasma ratio
[9] = milk, read-out: Milk concentration
[10] = plasma, read-out: Plasma concentration

- Concentration in kidney, small intestine and testis, fold higher in Abcg2−/− mice ([1]; abstract statement, time not given): ~2 fold
- Small intestine levels, fold higher in Abcg2−/− compared with wild-type ([1]; male mice, 24 h, 10 mg/kg s.c.): 1.4 fold
- Spleen accumulation, fold higher in Abcg2−/− compared with wild-type ([1]; male mice, 24 h, 10 mg/kg s.c.): 1.7 fold
- Testis concentration, fold higher in Abcg2−/− compared with wild-type ([1]; male mice, 24 h, 10 mg/kg s.c.): ~1.6 fold
- Tissue concentration, liver [1, 7]: <LOQ
- Tissue concentration, small intestine [1, 7]: <LOQ
- Tissue concentration, spleen [1, 7]: <LOQ
- Tissue concentration, testis [1, 7]: <LOQ
- Kp at 30 min [3, 8]: 0.1 ± 0.03
- concentration at 30 min [3, 9]: 8100 ± 1000 ng/mL
- concentration at 30 min [3, 10]: 62800 ± 13900 ng/mL
- Kp at 30 min [4, 8]: 0.3 ± 0.1
- concentration at 30 min [4, 9]: 15700 ± 6300 ng/mL
- concentration at 30 min [4, 10]: 58800 ± 11200 ng/mL
- Tissue concentration, spleen ([6]; Abcg2−/− male mice, 96 h): <LOQ
- Kp at 96 h ([6]; FVB/N, mouse, kidney and plasma, sc, Abcg2−/− male mice, 96 h, read-out: Tissue/plasma ratio, kidney): 0.03 ± 0.01
- concentration at 24 h ([6]; FVB/N, mouse, kidney, sc, Abcg2−/− male mice, read-out: Tissue concentration, kidney): 8200 ± 1800 ng/g
- concentration at 96 h ([6]; FVB/N, mouse, kidney, sc, Abcg2−/− male mice, 96 h, read-out: Tissue concentration, kidney): 3500 ± 300 ng/g
- concentration at 24 h ([6]; FVB/N, mouse, liver, sc, Abcg2−/− male mice, read-out: Tissue concentration, liver): 1300 ± 300 ng/g
- concentration at 96 h ([6]; FVB/N, mouse, liver, sc, Abcg2−/− male mice, 96 h, read-out: Tissue concentration, liver): 700 ± 200 ng/g
- concentration at 24 h ([6]; FVB/N, mouse, small intestine, sc, Abcg2−/− male mice, read-out: Levels of nitroxynil in small intestine): 1600 ± 300 ng/mL
- concentration at 24 h ([6]; FVB/N, mouse, small intestine, sc, Abcg2−/− male mice, read-out: Tissue concentration, small intestine): 1600 ± 300 ng/g
- concentration at 96 h ([6]; FVB/N, mouse, small intestine, sc, Abcg2−/− male mice, 96 h, read-out: Tissue concentration, small intestine): 500 ± 100 ng/g
- concentration at 24 h ([6]; FVB/N, mouse, spleen, sc, Abcg2−/− male mice, read-out: Accumulation in spleen): 2500 ± 300 ng/mL
- concentration at 24 h ([6]; FVB/N, mouse, spleen, sc, Abcg2−/− male mice, read-out: Tissue concentration, spleen): 2500 ± 300 ng/g
- concentration at 24 h ([6]; FVB/N, mouse, testis, sc, Abcg2−/− male mice, read-out: Concentration in testis): 4200 ± 800 ng/mL
- concentration at 24 h ([6]; FVB/N, mouse, testis, sc, Abcg2−/− male mice, read-out: Tissue concentration, testis): 4200 ± 800 ng/g
- concentration at 96 h ([6]; FVB/N, mouse, testis, sc, Abcg2−/− male mice, 96 h, read-out: Tissue concentration, testis): 1100 ± 200 ng/g
- Brain levels ([6]; wild-type and Abcg2−/− male mice, 24 and 96 h, almost all samples): below LOQ
SMILES: N#Cc1cc(I)c(O)c([N+](=O)[O-])c1 [nitroxynil]
- Time after treatment at which residues have been found in tissues [2]: ≤ 90 days
- Time after treatment at which residues have been found in milk [5]: up to 58 days
